Reference: patent publication US12221494B2, “Short synthetic peptides and their uses for treating retinal degenerative diseases and/or tissue injuries” (MacKay Memorial Hospital, priority 2019, dated 2025)

Assays:
TNF-α mRNA = assay: Hyperosmotic stress-induced TNF-α gene expression in rabbit corneal epithelial cells (qPCR); type: cell-based; conditions: 20 μM peptide 6 h, then hyperosmotic medium (463 mOsM) 3 h, solvent 12.8-fold
Experimental: Total RNA was extracted from cells using TRIzol (Invitrogen). Synthesis of cDNA was performed with 1 μg of total RNA at 50° C. for 50 min using oligo(dT) primers and reverse transcriptase (Superscript III; Invitrogen). Briefly, quantification of cDNA was performed in the LightCycler (Roche, Mannheim, Germany) using the DNA Master SYBR Green I kit (Roche) with the following cycling conditions: initial denaturation at 95° C. for 10 min, followed by 40 cycles at 95° C. for 10 s, 60° C. for 10 s, and 72° C. for 10 s and a 5-min terminal incubation at 72° C. The data were calculated with AACt. The expression was then normalized against the expression of glyceraldehyde-3-phosphate dehydrogenase (GAPDH). The PCR primers were mouse Survivin sense, 5′-[…]-3′ (SEQ ID NO: 27), anti-sense, 5′-[…]-3′ (SEQ ID NO: 28) (accession number: NM_001012273.1; PCR product: 136 bp); mouse GAPDH sense, 5′-[…]-3′ (SEQ ID NO: 29), anti-sense, 5′-[…]-3′ (SEQ ID NO: 30) (NM_001289726.1; 149 bp). For analysis rabbit inflammatory gene expression, The PCR primers were rabbit TNF-αsense, 5′-[…]-3′ (SEQ ID NO: 31), anti-sense, 5′-[…]-3′ (SEQ ID NO: 32) (accession number: NM 001082263.1); rabbit IL-1βsense, 5′-[…]-3′(SEQ ID NO: 33), anti-sense, 5′-[…]-3′ (SEQ ID NO: 34) (NM 001082201.1); rabbit GAPDH sense, 5′-[…]-3′ (SEQ ID NO: 35), anti-sense, 5′-[…]-3′ (SEQ ID NO: 36) (accession number:NM 001082253.1). The cycle threshold (Ct) values of the PCR product and a GAPDH (Glyceraldehyde 3-phosphate dehydrogenase) control mRNA were used to calculate relative quantities of mRNA.
Limbal stem epithelial cells (LSEC) were isolated from 6-month-old New Zealand white rabbits and continuously cultivated for 14 days byDMEM/F-12basalmedium based cell-suspension culture to achieve corneal-liked epithelial cell differentiation as previously described (Ho et al., Stem Cells. 2013; 31:1775). […] After 3 h, quantitative real-time PCR was used to estimate HOP-induced Tumor necrosis factor (TNF)-α and nterleukin-1 beta (IL-1β) expressions. […]

ARPE-19 cells = assay: 4-HNE induced apoptosis of ARPE-19 cells (TUNEL staining); type: cell-based, human; conditions: 20 μM peptide pretreatment, 25 μM 4-HNE 24 h
Experimental: FIG. 6. The protective effect of the 6-mer dS on ARPE-19 cells against 4-HNE induced apoptosis. Cells were deprived of serum for 24 h and then pretreated with 20 μM 6-mer dS or solvent prior to exposed with 25 μM 4-HNE for additional 24 h. Apoptosis was determined by TUNEL staining (green dots) and counter-stained with Hoechst 33258 (blue dots). (A) Representative graphs from three independent experiments are shown. (B) The percentage of cell death was quantified by dividing the number of TUNEL-positive cells to a population of 2000 counted cells per condition. TUNEL, terminal deoxynucleotidyl transferase-mediated dUTP nick end-labeling. ^aP<0.00003 versus solvent-treated cells. ^bP<0.0006 versus solvent/4-HNE-treated cells.
Reference is made to FIG. 6, which depicts the protective effect of 6-mer dS or 6-mer dE on 4-hydroxy-2-nonenal (4-HNE) induced apoptosis of ARPE-19 cells. 4-hydroxy-2-nonenal (4-HNE) is a product of lipid oxidation, and is also considered as one of the most formidable reactive aldehydes capable of forming adduct with various cellular targets, particularly proteins involve in redox signaling.

Q: Which results are given for “NH2-(D-Ser)-Leu-Gly-Ala-Glu-Gln-COOH (SLGAEQ; HELM PEPTIDE1{[dS].L.G.A.E.Q}$$$$V2.0; SMILES CC(C)C[C@H](NC(=O)[C@H](N)CO)C(=O)NCC(=O)N[C@@H](C)C(=O)N[C@@H](CCC(=O)O)C(=O)N[C@@H](CCC(N)=O)C(=O)O) [6-mer dS]”?
A: mRNA expression of TNF-α, in words (TNF-α mRNA): apparently repressed the mRNA expression of TNF-α and IL-1β; 4-HNE induced apoptosis (TUNEL), in words (ARPE-19 cells): could suppress 4-HNE induced apoptosis
